Assay results taken from patent US10196363B2, “Dihydropyrimidin-2-one compounds and medical use thereof” (JAPAN TOBACCO INC., priority 2014, dated 2019).
Where two headings read alike, the source gives them in different places.

How the values were obtained:
[1] = molecular target: T1, human RORγ (Homo sapiens, UniProt P51449); experiment: In vitro assay of inhibitory effect against RORγ transcriptional activity (GAL4-hRORγ LBD luciferase reporter gene assay in CHO cells); assay type: cell-based; details: for hRORγ luciferase activity, %-of-control: value in parentheses beside the > EC50 bound, vehicle-control 0.2% DMSO alone = 100%
T1 construct: human RORγ, from Ser253 to Lys518; expressed in transfected cells; host or cells: CHO cells (Chinese hamster ovary), transient co-transfection with pG5-Luc
T1 sequence (P51449 253-518): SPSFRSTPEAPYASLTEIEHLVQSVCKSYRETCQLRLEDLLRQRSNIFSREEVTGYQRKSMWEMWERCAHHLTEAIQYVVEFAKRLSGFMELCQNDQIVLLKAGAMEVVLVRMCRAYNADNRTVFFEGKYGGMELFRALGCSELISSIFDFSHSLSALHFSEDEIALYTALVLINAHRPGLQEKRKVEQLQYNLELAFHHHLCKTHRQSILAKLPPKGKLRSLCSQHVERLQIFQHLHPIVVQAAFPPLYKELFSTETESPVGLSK
Outline: (§1)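 Luciferase output, normalised to 0.2% DMSO vehicle (100%), served as the measure of RORγ transcriptional activity. The reporter was driven by GAL4-fused ligand-binding domains of human (residues 253–518) or mouse (251–516) RORγ in transiently transfected CHO cells. Cells received eight-point compound dilutions for 2 days, EC50 values were fitted, and cytotoxic points were dropped.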

[2] = molecular target: T2, mouse RORγ (Mus musculus, UniProt P51450); experiment: In vitro assay of inhibitory effect against RORγ transcriptional activity (GAL4-mRORγ LBD luciferase reporter gene assay in CHO cells); assay type: cell-based; details: for mRORγ luciferase activity, %-of-control: value in parentheses beside the > EC50 bound, vehicle-control 0.2% DMSO alone = 100%
T2 construct: mouse RORγ, from Ile251 to Lys516; expressed in transfected cells; host or cells: CHO cells (Chinese hamster ovary), transient co-transfection with pG5-Luc
T2 sequence (P51450 251-516): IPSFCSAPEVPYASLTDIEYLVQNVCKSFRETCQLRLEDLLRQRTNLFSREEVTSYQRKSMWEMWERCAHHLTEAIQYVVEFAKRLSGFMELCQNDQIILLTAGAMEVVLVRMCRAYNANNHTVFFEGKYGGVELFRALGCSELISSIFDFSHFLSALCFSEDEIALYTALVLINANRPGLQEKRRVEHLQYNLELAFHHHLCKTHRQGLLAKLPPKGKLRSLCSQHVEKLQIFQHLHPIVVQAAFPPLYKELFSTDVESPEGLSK
Outline: as §1

[3] = GAL4-hRORγ LBD / pG5-Luc in CHO cells, 2 days incubation
[4] = GAL4-mRORγ LBD / pG5-Luc in CHO cells, 2 days incubation
[5] = GAL4-hRORγ LBD luciferase reporter, CHO cells, read-out: LUC EC50 hRORγ
[6] = GAL4-mRORγ LBD luciferase reporter, CHO cells, read-out: LUC EC50 mRORγ

Row | Compound | EC50 [1, 3] | EC50 [2, 4] | EC50 [1, 5] | EC50 [2, 6] | hRORγ luciferase activity, %-of-control [1] | mRORγ luciferase activity, %-of-control [2]
1 | CC(C)(C)CCc1ccc([C@]2(C)NC(=O)N([C@H]3C[C@H](C(=O)O)C3)C=C2C2CCOCC2)cc1Cl [Example 100] | 20 nM | 35 nM |  |  |  | 
2 | CC(C)C1=CN(CC(=O)O)C(=O)N[C@@]1(C)c1ccc(CCC(C)(C)C)c(Cl)c1 [Example 94] | 152 nM | 142 nM |  |  |  | 
3 | CC(C)C1=CN(CCC(=O)O)C(=O)N[C@@]1(C)c1ccc(CCC(C)(C)F)c(Cl)c1 [Example 294] |  |  | 68 nM | 34 nM |  | 
4 | CC(C)C1=CN(CCC(C)C(=O)O)C(=O)NC1(C)c1ccc(CCC(C)(C)C)c(Cl)c1 (single isomer, unassigned) [Example 24] | 2940 nM | 2930 nM |  |  |  | 
5 | COCCC1=CN(c2ccc(C(=O)O)c(OC)c2)C(=O)N[C@@]1(C)c1ccc(CC2CCCCC2)c(Cl)c1 [Example 337] |  |  | 22 nM | 14 nM |  | 
6 | CC(C)(C)CCc1ccc([C@]2(C)NC(=O)N(CC3CC(F)(F)C3)C=C2[C@H]2C[C@@H](C(=O)O)C2)cc1Cl [Example 248] |  |  | 10 nM | 21 nM |  | 
7 | CC(C)C1=CN(CCC(=O)O)C(=O)N[C@@]1(C)c1cc(F)c(/C=C/C(C)(C)C)c(Cl)c1 [Example 189] | 30 nM | 22 nM |  |  |  | 
8 | CC(C)C1=CN(CCC(=O)O)C(=O)N[C@@]1(C)c1cc(F)c(CCC(C)(C)C)c(Cl)c1 [Example 175] | 9 nM | 12 nM |  |  |  | 
9 | CC(C)(C)CCc1ccc([C@]2(C)NC(=O)N(c3ccc(C(=O)O)cc3)C=C2C2CC(F)(F)C2)cc1Cl [Example 252] |  |  | 20 nM | 28 nM |  | 
10 | COCCC1=CN(C23CCC(C(=O)O)(C2)C3)C(=O)N[C@@]1(C)c1ccc([C@H]2C[C@@H](C(C)(C)C)C2)c(Cl)c1 (single isomer, unassigned) [Example 344] |  |  | 13 nM | 12 nM |  | 
11 | CCCCc1ccc(C2(C)NC(=O)N(CCCC(=O)O)C=C2C(C)C)cc1OCc1ccccc1 (racemic) [Example 85] | 545 nM | 368 nM |  |  |  | 
12 | CC(C)(C)COc1ccc(C2NC(=O)N(CCCC(=O)O)C=C2C(C)(C)C)cc1Cl (single isomer, unassigned) [Example 6] | > 8000 nM | > 8000 nM |  |  | (76%) | (75%)
13 | CC(C)C1=CN(CCC(=O)O)C(=O)N[C@@]1(C)c1cc(F)c(OCCC(C)(C)C)c(Cl)c1 [Example 165] | 27 nM | 17 nM |  |  |  | 
14 | CC(C)C1=CN(C2CCC(C(=O)O)C2)C(=O)N[C@@]1(C)c1ccc(CCC(C)(C)C)c(Cl)c1 (single isomer, unassigned) [Example 279] |  |  | 16 nM | 22 nM |  | 
15 | CC(C)C1=CN(CCC(=O)O)C(=O)N[C@@]1(C)c1ccc(CCCC(C)(C)C)c(Cl)c1 [Example 124] | > 512 nM | 30 nM |  |  | (54%) | 
16 | CC(C)C1=CN(C2CCCC(C(=O)O)C2)C(=O)N[C@@]1(C)c1ccc(CCC(C)(C)C)c(Cl)c1 (single isomer, unassigned) [Example 255] |  |  | 273 nM | 296 nM |  | 
17 | COC[C@H]1C[C@H](N2C=C(C(C)(C)CCC(=O)O)[C@](C)(c3ccc(CCC(C)(C)C)c(Cl)c3)NC2=O)C1 [Example 198] |  |  | 12 nM | 26 nM |  | 
18 | CC(C)C1=CN(CCC(=O)O)C(=O)N[C@]1(C)c1ccc(CCc2ccccc2)c(Cl)c1 [Example 143] | > 8000 nM | > 8000 nM |  |  | (90%) | (100%)
19 | CC(C)C1=CN(CCC(=O)O)C(=O)N[C@]1(C)c1ccc(CCC2CC(C)(C)C2)c(Cl)c1 [Example 141] | > 8000 nM | > 8000 nM |  |  | (57%) | (52%)
20 | CC(C)C1=CN(CCCC(=O)O)C(=O)N[C@]1(C)c1ccc(CCC(C)(C)C)c(Cl)c1 [Example 14] | > 8000 nM | > 8000 nM |  |  | (69%) | (59%)
21 | CC(C)C1=CN([C@H]2CC[C@H](C(=O)O)CC2)C(=O)NC1(C)c1ccc(CCC(C)(C)C)c(Cl)c1 (mixture of isomers) [Example 29] | 36 nM | 49 nM |  |  |  | 
22 | COC1CC(C2=CN(c3ccc(C(=O)O)cc3)C(=O)N[C@@]2(C)c2ccc(CCC(C)(C)C)c(Cl)c2)C1 (single isomer, unassigned) [Example 277] |  |  | 23 nM | 38 nM |  | 
